For two compounds, remaining activity and inhibition results are on record in patent US20070117770A1, “Human ribosomal DNA (rDNA) and ribosomal RNA (rRNA) nucleic acids and uses thereof” (Cylene Pharmaceuticals, Inc., priority 2005, published 2007).

What all share (assay): Protein kinase inhibition assay
Common to all, as to type: biochemical

One assay addresses Abl(m) (Mus musculus, UniProt P00520). The note with it: read-out: percent residual activity of Abl(m). The method, then:
(§1) Certain compounds were tested for activity in protein kinase inhibition assays. All substrates were dissolved and diluted to working stocks in de-ionized water, apart from histone H1 (10× working stock in 20 mM MOPS pH 7.0), PDKtide (10× working stock in 50 mM Tris pH 7.0) ATF2 (which is typically stored at a 20× working stock in 50 mM Tris pH 7.5, 150 mM NaCl, 0.1 mM EGTA, 0.03% Brij-35, 50% glycerol, 1 mM benzamidine, 0.2 mM PMSF and 0.1% R-mercaptoethanol), KKLNRTLSFAEPG (SEQ ID NO:203) and RRRLSFAEPG (SEQ ID NO:204) (50 mM HEPES pH 7.4) and GGEEEEYFELVKKKK (SEQ ID NO:205) (20 mM MOPS pH 7.0). All kinases were pre-diluted to a 10× working concentration prior to addition into the assay. The composition of the dilution buffer for each kinase is detailed below.
(§2) In a final reaction volume of 25 μl, Abl (m) (5-10 mU) is incubated with 8 mM MOPS pH 7.0, 0.2 mM EDTA, 50 μM EAIYAAPFAKKK (SEQ ID NO:206), 10 mM MgAcetate and [gamma-33P-ATP] (specific activity approx. 500 cpm/pmol, concentration as required). The reaction is initiated by the addition of the MgATP mix. After incubation for 40 minutes at room temperature, the reaction is stopped by the addition of 5 μl of a 3% phosphoric acid solution. 10 μl of the reaction is then spotted onto a P30 filtermat and washed three times for 5 minutes in 75 mM phosphoric acid and once in methanol prior to drying and scintillation counting.

For a further assay, the target named is Abl(T315I)(h) (Homo sapiens, UniProt P00519, T315I). The note with it: read-out: percent residual activity of Abl(T315I)(h). The method, then:
as §1
as §2, with “(T3151) (h)” for “(m)”

The next assay addresses GSK3β(h) (Homo sapiens, UniProt P49841). The note with it: read-out: percent residual activity of GSK3β(h). The method, then:
as §1
In a final reaction volume of 25 μl, GSK3β (h) (5-10 mU) is incubated with 8 mM MOPS pH 7.0, 0.2 mM EDTA, 20 μM […](p)EDEEE (SEQ ID NO:221) (phospho GS2 peptide), 10 mM MgAcetate and [gamma-33P-ATP] (specific activity approx. 500 cpm/pmol, concentration as required). The reaction is initiated by the addition of the MgATP mix. After incubation for 40 minutes at room temperature, the reaction is stopped by the addition of 5 μl of a 3% phosphoric acid solution. […]

In the next assay the target is JNK1α1(h) (Homo sapiens, UniProt P45983). The settings on record: read-out: percent residual activity of JNK1α1(h). The method, then: as §1
as §2, with “JNK1α (h)” for “Abl (m)”, “50” for “8”, “Tris” for “MOPS”, “7.5, 0.1” for “7.0, 0.2”, “EGTA, 0.1% R-mercaptoethanol, 3” for “EDTA, 50”, “ATF2,” for “EAIYAAPFAKKK (SEQ ID NO:206),”

Another assay deals with Tie2(h) (Homo sapiens, UniProt Q02763). The note with it: for remaining activity at 2.5 µM: read-out: percent residual activity of Tie2(h). On the procedure:
as §1
as §2, with “Tie2 (h)” for “Abl (m)”, “0.5 mM MnCl2, 0.1 mg/ml poly(Glu, Tyr) 4:1,” for “50 μM EAIYAAPFAKKK (SEQ ID NO:206),”, “Filtermat A” for “P30 filtermat”

A further assay addresses Yes(h) (Homo sapiens, UniProt P07947). The settings on record: read-out: percent residual activity of Yes(h). On the procedure:
as §1
as §2, with “Yes (h)” for “Abl (m)”, “0.1 mg/ml poly(Glu, Tyr) 4:1,” for “50 μM EAIYAAPFAKKK (SEQ ID NO:206),”, “Filtermat A” for “P30 filtermat”

Chain of Tie2(h) (Q02763 23-1124): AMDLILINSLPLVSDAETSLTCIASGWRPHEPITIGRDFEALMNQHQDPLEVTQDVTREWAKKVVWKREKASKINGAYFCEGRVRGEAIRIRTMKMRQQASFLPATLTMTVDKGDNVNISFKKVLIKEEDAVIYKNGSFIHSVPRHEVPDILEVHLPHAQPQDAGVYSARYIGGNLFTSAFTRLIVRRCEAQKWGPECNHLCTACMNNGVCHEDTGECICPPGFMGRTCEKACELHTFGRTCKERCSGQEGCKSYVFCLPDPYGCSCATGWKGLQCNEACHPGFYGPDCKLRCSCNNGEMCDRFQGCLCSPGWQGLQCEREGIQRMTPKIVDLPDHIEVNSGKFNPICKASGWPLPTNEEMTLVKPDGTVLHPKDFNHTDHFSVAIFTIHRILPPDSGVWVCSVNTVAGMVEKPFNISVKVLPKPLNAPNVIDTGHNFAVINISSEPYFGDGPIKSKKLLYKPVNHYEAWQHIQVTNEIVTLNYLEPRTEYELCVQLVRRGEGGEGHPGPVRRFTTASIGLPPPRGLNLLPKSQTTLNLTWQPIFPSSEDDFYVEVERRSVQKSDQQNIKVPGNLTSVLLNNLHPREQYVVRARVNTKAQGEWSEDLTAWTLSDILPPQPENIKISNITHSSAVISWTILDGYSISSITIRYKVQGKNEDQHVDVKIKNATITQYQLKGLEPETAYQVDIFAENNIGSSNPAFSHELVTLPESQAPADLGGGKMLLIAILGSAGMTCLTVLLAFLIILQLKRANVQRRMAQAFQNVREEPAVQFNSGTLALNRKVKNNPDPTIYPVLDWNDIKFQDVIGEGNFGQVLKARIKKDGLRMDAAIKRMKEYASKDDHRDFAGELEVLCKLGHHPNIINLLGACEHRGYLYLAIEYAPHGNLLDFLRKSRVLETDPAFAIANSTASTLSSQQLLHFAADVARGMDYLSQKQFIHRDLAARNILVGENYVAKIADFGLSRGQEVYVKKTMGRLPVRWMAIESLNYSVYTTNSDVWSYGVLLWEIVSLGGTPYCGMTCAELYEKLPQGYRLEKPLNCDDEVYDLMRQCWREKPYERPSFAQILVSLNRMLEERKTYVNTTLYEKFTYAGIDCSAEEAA
Chain of GSK3β(h) (P49841 whole entry): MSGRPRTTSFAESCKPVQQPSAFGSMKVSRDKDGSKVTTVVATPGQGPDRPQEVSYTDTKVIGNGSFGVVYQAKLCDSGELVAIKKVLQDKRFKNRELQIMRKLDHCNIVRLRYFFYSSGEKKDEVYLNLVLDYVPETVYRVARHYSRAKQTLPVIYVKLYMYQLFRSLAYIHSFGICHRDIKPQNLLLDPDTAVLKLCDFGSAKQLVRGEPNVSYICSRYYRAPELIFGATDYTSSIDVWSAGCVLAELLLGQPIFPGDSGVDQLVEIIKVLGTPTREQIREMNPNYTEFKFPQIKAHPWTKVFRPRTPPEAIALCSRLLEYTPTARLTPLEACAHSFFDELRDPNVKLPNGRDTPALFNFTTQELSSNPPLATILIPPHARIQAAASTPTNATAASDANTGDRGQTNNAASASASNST
Chain of Abl(m) (P00520 whole entry): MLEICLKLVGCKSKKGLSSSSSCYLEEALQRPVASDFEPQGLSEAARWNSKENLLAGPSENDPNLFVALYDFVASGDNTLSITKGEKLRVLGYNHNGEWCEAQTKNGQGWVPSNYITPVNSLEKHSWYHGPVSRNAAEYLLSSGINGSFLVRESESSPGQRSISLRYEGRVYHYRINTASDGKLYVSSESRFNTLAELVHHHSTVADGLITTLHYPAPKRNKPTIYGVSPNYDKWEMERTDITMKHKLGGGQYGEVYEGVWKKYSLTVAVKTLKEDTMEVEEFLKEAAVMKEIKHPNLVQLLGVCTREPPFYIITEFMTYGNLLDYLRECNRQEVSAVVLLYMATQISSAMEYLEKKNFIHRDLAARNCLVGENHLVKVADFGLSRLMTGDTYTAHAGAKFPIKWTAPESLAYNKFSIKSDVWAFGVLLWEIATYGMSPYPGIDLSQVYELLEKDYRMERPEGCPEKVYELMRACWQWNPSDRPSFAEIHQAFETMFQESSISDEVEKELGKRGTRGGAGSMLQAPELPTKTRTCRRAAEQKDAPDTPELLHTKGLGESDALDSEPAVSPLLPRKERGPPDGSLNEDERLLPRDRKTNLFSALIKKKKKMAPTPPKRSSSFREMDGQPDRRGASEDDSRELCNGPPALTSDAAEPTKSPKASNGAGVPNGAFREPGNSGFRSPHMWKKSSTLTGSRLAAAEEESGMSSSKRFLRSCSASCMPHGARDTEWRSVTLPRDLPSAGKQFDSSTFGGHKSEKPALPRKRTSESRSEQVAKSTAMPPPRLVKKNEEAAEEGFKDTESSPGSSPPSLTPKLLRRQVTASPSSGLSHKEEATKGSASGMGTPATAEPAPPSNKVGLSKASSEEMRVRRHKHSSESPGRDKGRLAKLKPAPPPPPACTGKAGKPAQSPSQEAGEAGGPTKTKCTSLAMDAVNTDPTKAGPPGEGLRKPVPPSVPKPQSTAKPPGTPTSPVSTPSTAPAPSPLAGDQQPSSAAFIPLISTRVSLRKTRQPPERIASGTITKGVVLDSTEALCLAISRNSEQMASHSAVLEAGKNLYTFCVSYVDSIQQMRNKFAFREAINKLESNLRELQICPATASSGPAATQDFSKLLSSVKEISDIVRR
Chain of JNK1α1(h) (P45983 1-384 isoform P45983-2): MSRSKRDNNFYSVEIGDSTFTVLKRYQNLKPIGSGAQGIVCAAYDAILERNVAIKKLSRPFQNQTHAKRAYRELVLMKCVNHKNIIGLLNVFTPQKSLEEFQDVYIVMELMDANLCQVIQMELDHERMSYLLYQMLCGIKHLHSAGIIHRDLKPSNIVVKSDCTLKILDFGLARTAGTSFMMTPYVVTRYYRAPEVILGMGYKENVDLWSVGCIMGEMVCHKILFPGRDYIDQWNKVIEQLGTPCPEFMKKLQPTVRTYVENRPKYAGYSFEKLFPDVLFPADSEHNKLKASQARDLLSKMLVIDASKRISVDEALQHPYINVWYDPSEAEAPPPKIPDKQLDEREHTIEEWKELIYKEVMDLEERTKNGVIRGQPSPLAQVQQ
Chain of Yes(h) (P07947 whole entry): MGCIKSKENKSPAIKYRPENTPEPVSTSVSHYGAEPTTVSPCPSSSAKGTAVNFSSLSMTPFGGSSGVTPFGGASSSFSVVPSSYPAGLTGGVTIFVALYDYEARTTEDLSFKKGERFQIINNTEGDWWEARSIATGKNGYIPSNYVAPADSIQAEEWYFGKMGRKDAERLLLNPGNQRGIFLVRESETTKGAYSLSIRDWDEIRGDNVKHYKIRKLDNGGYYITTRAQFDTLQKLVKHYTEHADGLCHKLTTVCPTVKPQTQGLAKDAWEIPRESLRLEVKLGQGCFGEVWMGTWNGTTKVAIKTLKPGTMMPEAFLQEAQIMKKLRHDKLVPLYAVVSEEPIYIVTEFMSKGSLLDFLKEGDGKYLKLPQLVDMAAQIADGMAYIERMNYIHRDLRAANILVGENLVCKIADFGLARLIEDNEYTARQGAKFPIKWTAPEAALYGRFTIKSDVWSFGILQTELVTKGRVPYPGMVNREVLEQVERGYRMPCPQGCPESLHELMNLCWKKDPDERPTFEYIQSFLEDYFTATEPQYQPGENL

For the compound `CN1CCCC1CCNC(=O)c1cn2c3c(c(N4CCC(c5cnccn5)C4)c(F)cc3c1=O)Oc1cc3ccccc3cc1-2` (stereo not shown) [Compound A-1], the remaining activity at 2.5 µM on Abl(m) worked out at 9%; at Abl(T315I)(h), 52%; at GSK3β(h), 135%; on JNK1α1(h), 94%; on Tie2(h), 13%; on Yes(h), 81%. Besides, the inhibition at 2.5 µM at Tie2(h) was > 80%.

With `CC(=O)N1CCN(c2ccc3c(=O)c(C(=O)NCCN4CCCC4)c4n(C)c5ccccc5n4c3n2)CC1` [Compound B-1], the remaining activity at 2.5 µM is 104% on Abl(m); 106% at Abl(T315I)(h); 76% on GSK3β(h); 100% on JNK1α1(h); 115% at Tie2(h); 96% on Yes(h).

What is called inhibition is how much of the control response was suppressed. Read a low inhibition as a response near the control.
